The nature of this series: Human HepG2 cell viability assay in 384 well format. The series is classed as toxicity, cell-based. Further details: dose 125 nL, time 70.5 hour; cytotoxicity at 70.5 h: concentration not given beside the values. The settings on record: HepG2 cells, read-out: Inhibition.
Take `COCC(=O)N1CCn2c(CN3CCN(C)CC3)cnc2C1`: the cytotoxicity at 70.5 h is -3.31%.
For the compound `c1ccc(COC[C@]23COC[C@H]2CN(c2ncccn2)C3)nc1`, the cytotoxicity at 70.5 h is -11.9%.
To `O=C(CSc1nc2c(cnn2CCO)c(=O)[nH]1)N1CCCCCC1` belongs 13.2%; to `CCn1cnnc1CNC(=O)N1CCN(Cc2ccco2)CC1`, 1.5%.
In the case of `Cc1nc(C)n(C2CCCN(C(=O)c3csnn3)C2)n1` (stereo not given) it was -11.1%; in that of `CCS(=O)(=O)N1CCCC2(COCCN(c3nncs3)C2)C1` (stereo not given), -2.49%; in that of `CCCn1cc(S(=O)(=O)N[C@H]2CN(C(C)=O)C[C@@H]2C2CC2)cn1`, -1.84%.
As to `c1nn(C2CCCCC2)cc1-c1cncn1CCCN1CCCCC1`, the cytotoxicity at 70.5 h is -0.625%.
In the case of `Cc1ccc(C(=O)N2CCn3c(COCC4CC4)cnc3C2C)s1` (stereo not given) it was -4.86%; in that of `Cn1cnnc1C1CCN(C(=O)c2cc3c(s2)CCCC3)CC1`, 14.6%; in that of `O=C(c1cnco1)N1C[C@@H]2CC[C@H](Oc3cccc(F)c3)[C@@H]2C1`, -3.26%.
For the compound `CC(C)(C)N1CCCN(C(=O)c2csc(S(N)(=O)=O)c2)CC1`, the cytotoxicity at 70.5 h turned out to be 15.7%.
`CCC(=O)N(CC(N)=O)Cc1cccc(Oc2ccccc2)c1`: the cytotoxicity at 70.5 h turned out to be 0.0156%.
To `Cc1cccc2c1nc1n2[C@@H](CNC2CCCCC2)COC1` belongs 8.3%.
As for `CCC1=NOC(CNCc2cnc(-c3ccccc3C)s2)C1` (stereo not given), the cytotoxicity at 70.5 h was -6.62%.
In the case of `CCC(CC)N(Cc1cc(=O)n(C)c(=O)n1C)C1CC1` it was 5.26%.
Turning to `CNC(=O)[C@@H](c1ccccc1OC)N1CCC[C@H]1C(=O)NC(C)(C)C`, the cytotoxicity at 70.5 h was -8.72%.
Regarding `CCN(Cc1noc(C2CC2)n1)C(=O)c1onc2ccccc12`, the cytotoxicity at 70.5 h was -8.65%.
Take `N#CCC(=O)NCc1nnc2n1CCN(Cc1ccco1)C2`: the cytotoxicity at 70.5 h is -13%.
Take `Cc1nnc(CNC(C)c2cc(C)c(F)c(C)c2)s1` (stereo not given): the cytotoxicity at 70.5 h is -5.2%.
To `Cc1cnn(CC2CCN(CC(O)c3ccccc3)CC2)c1` (stereo not given) belongs 13.9%; to `O=C(COCC1CC1)Nc1ncn(CC(=O)N2CCCCCC2)n1`, -3.31%.
Take `Cc1cccc(N2CC3(COCCN(c4ccncn4)C3)OCC2=O)c1` (stereo not given): the cytotoxicity at 70.5 h was found to be 0.341%.
As to `CC(CNS(=O)(=O)CCCC#N)c1ccsc1` (stereo not given), the cytotoxicity at 70.5 h was -3.18%.
In the case of `CSc1ccc(CNC2CCCc3c2cnn3C)cc1` (stereo not given) it was -8.39%; in that of `CCOc1ccc(CC(=O)N2C[C@H](C3CC3)[C@@H](N)C2)cc1`, 37.4%.
In the case of `Cc1nc2n(n1)CC(NCCc1cccs1)CC2` (stereo not given) it was 0.958%; in that of `COC1COC2(CCN(C(=O)c3ccc4ccccc4c3)CC2)C1` (stereo not given), -4.73%; in that of `CNc1nc2c(s1)C(c1c(Cl)cccc1Cl)CC(=O)N2` (stereo not given), -15.8%.
To `O=C(c1ccnnc1)N1C[C@@H]2COC[C@]2(COCC2CC2)C1` belongs -7.55%; to `CCc1sc(C(=O)Nc2cnn(CCN(C)C)c2)cc1C`, -17.9%.
As to `CN(C)CCOCC1CN(Cc2ccc(F)cc2)Cc2nnn(C)c21` (stereo not given), the cytotoxicity at 70.5 h worked out at 2.45%.
To `CN(C)C(=O)c1cccnc1SCc1ccccc1Cl` belongs 1.28%.
To `O=C(Nc1ccccc1)c1ccc2c(c1)C1(CCCCC1)CN2` belongs -2.11%; to `COC1CCCOC12CCN(C(=O)c1ccc3[nH]nnc3c1)CC2` (stereo not given), -5.57%; to `Cc1cc(C)n(C2CCN(S(=O)(=O)N3CCOCC3)CC2)n1`, -6.85%.
To `CCC(=O)NCCc1cc(N2CCN(C(C)=O)CC2)nc(C2CC2)n1` belongs -1.36%; to `Cc1ncsc1CCN(C)C1CCN(c2ncnc3[nH]cnc23)CC1`, -6.66%.
Consider `CCS(=O)(=O)c1ccc(N2CCC(NC(=O)CC3CCCC3)CC2)cc1`, for which the cytotoxicity at 70.5 h is -9.91%.
As for `CCOCC1COCCC12CCN(C(=O)C1=CCCCC1)CC2` (stereo not given), the cytotoxicity at 70.5 h was -4.56%.
As to `Fc1ccc(OCCCNC2=NCCCN2)cc1`, the cytotoxicity at 70.5 h is -5.27%.
To `NC(=O)Nc1cc(Br)cnc1OCC(F)(F)F` belongs -7.02%.
To `COCC(=O)Nc1nn(Cc2ccc(F)cc2)cc1Cl` belongs -5.91%; to `COc1cccc(CC(=O)N2CCc3ncnc(C)c3CC2)c1`, -5.98%.
For the compound `Cc1cnn(CCNCc2ccc(C#N)cc2)c1`, the cytotoxicity at 70.5 h is -1.47%.
With `CN(Cc1ccc(F)cc1)Cc1cc2c(cc1Br)OCCO2`, the cytotoxicity at 70.5 h is -8.04%.
To `O=C(C1CCOC1)N1CC[C@@H](O)[C@@H]1Cc1ccccc1` (stereo not given in full) belongs -12.1%; to `CCN1CCC2(CN(C(C)=O)CC23CCN(CC2CC2)CC3)C1=O` (stereo not given), -5.77%; to `Cc1cc(Br)oc1C(=O)N1CCN(CC(N)=O)CC1`, -1.55%.
For `Cc1nn(C)c2c(=O)n(C(C)C)c(NCC3CCCO3)nc12` (stereo not given), the cytotoxicity at 70.5 h was -9.24%.
Turning to `CC(C)c1nnc2n1CCN(C(=O)c1ccc3c(c1)CCC3)C2`, the cytotoxicity at 70.5 h was 0.826%.
As for `CCS(=O)(=O)N1CCC(c2nnc(CN3CCCCCC3)n2C)CC1`, the cytotoxicity at 70.5 h is -3.73%.
For the compound `Cc1csc2c(=O)n(CCN3CCC(c4ccccc4)CC3)cnc12`, the cytotoxicity at 70.5 h was -3.26%.
Regarding `Cc1cc(C)n(CC2CCN(CC(O)Cn3cccn3)CC2)n1` (stereo not given), the cytotoxicity at 70.5 h is -1.67%.
For `Cc1nc(C)n(CC2CCCN2CC(=O)NCCc2ccsc2)n1` (stereo not given), the cytotoxicity at 70.5 h stood at 3.16%.
On to `O=S1(=O)CCC(n2cc(C3=CCN(CCN4CCCCC4)CC3)cn2)C1` (stereo not given), for which the cytotoxicity at 70.5 h is -7.91%.
Take `CC(Cn1cccn1)NCc1cccc(C#N)c1` (stereo not given): the cytotoxicity at 70.5 h was -3.1%.
To `CCN1CCc2[nH]cnc2C12CCN(C(=O)CCCn1cncn1)CC2` belongs -1.47%; to `Cc1ccc(CN(C)C(=O)CNC(=O)N2CCc3ccccc3C2)o1`, 17.9%; to `CC1(C)CNC(=O)c2nc(C3CCN(C(=O)C4CC4)CC3)[nH]c2C1`, -11%.
To `CN(Cc1cnn(C)c1)C(=O)CN1CCCC1Cn1cncn1` (stereo not given) belongs 21.4%; to `CN(C)C(=O)CCNC(=O)NCc1ccc(Br)cc1Cl`, 17.2%; to `Cc1cc2[nH]c(CN3CCOC(c4ccc(Cl)cc4)C3)cc(=O)n2n1` (stereo not given), -2.79%.
As to `O=C(c1ncccc1O)N1CCc2c(ncnc2N2CCOCC2)C1`, the cytotoxicity at 70.5 h was -4.02%.
Turning to `O=S(=O)(NCC1CCN(c2ccccn2)CC1)c1ccccc1F`, the cytotoxicity at 70.5 h was 33.3%.
`O=C(CCCn1cncn1)N1CCCC1c1noc(C2CC2)n1` (stereo not given): the cytotoxicity at 70.5 h is -3.05%.
To `Cc1cc(S(=O)(=O)NCC[S+](C)[O-])c(F)cc1F` (stereo not given) belongs -2.05%; to `O=C(Cc1cccs1)NCC1(O)CCc2ccccc2C1` (stereo not given), -7.27%; to `Cc1ccc(CN2C[C@@H]3CN(C(=O)c4cccn4C)C[C@@H]3C2)cc1`, -3.66%.
Consider `Cc1cccc(-n2ncc3c2CCCC3NCc2cnn(C)c2C)c1C` (stereo not given), for which the cytotoxicity at 70.5 h is 3.5%.
As to `CCCc1cc(NCc2ccc(CO)cc2)n2nccc2n1`, the cytotoxicity at 70.5 h turned out to be 1.98%.
In the case of `CC(C)NC(=O)CC1COC2(CCN(Cc3cccnc3)CC2)C1` (stereo not given) it was -12.2%.
With `CC[C@H]1CN(C(=O)c2cccc(-n3cnnc3)n2)CC[C@@]1(C)O`, the cytotoxicity at 70.5 h is 19.7%.
To `NC(=O)CSCCC(=O)NCC1CC1` belongs 3.32%.
Turning to `CN(C)C(=O)c1cccc(NC(=O)N2CCCC(C(F)(F)F)C2)c1` (stereo not given), the cytotoxicity at 70.5 h was -8.44%.
To `O=C(c1ccc(O)cn1)N1CCOC(c2ccc(Cl)c(Cl)c2)C1` (stereo not given) belongs -3.33%; to `CCOCc1cnc2n1CCN(Cc1cccs1)C2C` (stereo not given), -8.03%; to `CCC(O)CN1CCN(C(=O)Cc2nc(-c3ccco3)oc2C)CC1` (stereo not given), -2.09%.
In the case of `CN(CC1(CO)CCOCC1)[C@@H]1c2ccccc2C2(CCNCC2)[C@H]1O` it was 19%.
`CC(=O)N1CCN(C(=O)CCn2c(C)nc3ccccc3c2=O)CC1`: the cytotoxicity at 70.5 h is -7.85%.
As for `Cc1nc(CCNC(Cc2ccncc2)C(F)(F)F)cs1` (stereo not given), the cytotoxicity at 70.5 h is -3.19%.
In the case of `C1CCN(CCOC2CCNC2)CC1` (stereo not given) it was -3.02%.
Regarding `COc1ccccc1OCCN1CCCCC1Cn1cncn1` (stereo not given), the cytotoxicity at 70.5 h was found to be 23.7%.
In the case of `COCCN1CC[C@H]2CN(c3cc(OC)ncn3)C[C@@H]2C1=O`, the cytotoxicity at 70.5 h is 24.4%.
In the case of `CC(C)CCN1C[C@@H]2OCCN(c3ncc(F)cn3)[C@@H]2C1` it was -4.42%; in that of `COCCN(Cc1nc2c(cnn2C)c(=O)[nH]1)C(C)COC` (stereo not given), -7.19%; in that of `COc1ccc(NC(=O)Cn2c(=O)nc(N)c3cc(C)sc32)cc1`, -13.1%.
To `CNc1ncc2c(n1)CN(c1cccc(OC)c1)C2=O` belongs -13.9%.
To `CC(C)NC1CCc2c(ccc(=O)n2CC2CC2)C1` (stereo not given) belongs 4.51%; to `CSCCC(=O)N1CCCN(c2ccccc2C)CC1`, 13.3%.
Turning to `O=C(CCc1nccs1)N1CCCC(n2ccnc2)C1` (stereo not given), the cytotoxicity at 70.5 h is -11.8%.
To `COc1ccc(CN2CCOC3(CCCN(c4cnccn4)C3)C2)cc1` (stereo not given) belongs -4.22%.
In the case of `Cc1nn(C)cc1-c1cc(C(=O)NCC(C)(C)c2cccc(F)c2)n[nH]1` it was 1.66%.
Regarding `O=C(Nc1ccc(Cl)cn1)C1CCCN(CCc2ccccn2)C1` (stereo not given), the cytotoxicity at 70.5 h was 14.5%.
To `CC(C)(C)C(=O)N1CC[C@H]2NC(=O)N(c3ccc(F)cc3)C(=O)[C@H]21` belongs -4.77%; to `Cc1nn(C)c(N2CCOCC2)c1CNCc1ccccc1CO`, -10.1%; to `O=C(c1cscn1)N1CCc2c(COCC3CC3)cncc2C1`, -1.4%.
In the case of `O=C(CSc1nc2nncc-2c(O)n1-c1ccccc1)N1CCOCC1` it was -10.6%; in that of `CN(C)c1ccc(-c2cc(=O)n3c(n2)CCCCC3)cc1`, -11%.
For the compound `CCN(CCCNCc1c(C)nn(C)c1N(C)C)S(C)(=O)=O`, the cytotoxicity at 70.5 h is 4.83%.

The record behind these values is ChEMBL document CHEMBL3507680, “University of Dundee, Gates Library screen for HepG2 cell viability”.
